Test results taken from patent US8461182B2, “7-piperidinoalkyl-3, 4-Dihydroquinolone derivative” (Taisho Pharmaceutical Co., Ltd., priority 2008, dated 2013).
pIC50: −log10 of the molar value. Structures can show the parent of a compound that is named as a salt.

biological target: T1, MCH1R (Homo sapiens, UniProt Q99705); test: Calcium Evaluation Test for MCH1R (FDSS assay, MCH-induced intracellular calcium increase); type: cell-based; details: cells stably expressing non-endogenous active MCH1R; 50 nM MCH; Fluo-4 calcium, FDSS6000
T1 construct: IC50; other: cells stably expressing non-endogenous active MCH1R; 50 nM MCH; Fluo-4 calcium, FDSS6000
Excerpt: Calcium Evaluation Test for MCH1R
An FDSS assay can measure the intracellular calcium concentration and can evaluate the Gq-coupled receptor activity using the calcium concentration as an index. For example, the assay can determine whether an analyte is an antagonist, an inverse agonist or an agonist for a Gq-coupled receptor. The FDSS6000™ system (Hamamatsu Photonics K.K.) is designed to perform evaluation based on functionality such as measurement of intracellular calcium for high-throughput screening. Intracellular calcium release by activation of a Gq-coupled receptor can be fluorometrically measured by incorporating a calcium indicator (such as Fluo4) into cells. On the other hand, the assay cannot measure the activation of Gi- and Go-coupled receptors, because the activation is not associated with calcium signaling pathways.
Intracellular fluorescence can be rapidly and successively measured in a 96-well microplate or a 384-well microplate using a fluorometric imaging plate reader system. FDSS6000™ can simultaneously measure fluorescence in all wells sensitively, accurately and by seconds. This system is ideal for functional analysis in cells such as monitoring of an intracellular calcium flow generated within several seconds after activation of a Gq-coupled receptor.
On the day before the test, cells stably expressing non-endogenous active MCH1R were seeded into a 96-well microplate at 3×10^4 cells per well. 100 μL per well of a medium (Dulbecco's modified Eagle medium containing 10% fetal bovine serum, 2 mM glutamine, 1 mM sodium pyruvate and 0.5 mg/mL G418, pH=7.4) was used for culture. On the day of the test, the medium was removed and an assay buffer {Hank's balanced salt solution containing 20 mM HEPES, 0.5 mM probenecid, 0.05 mg/mL amaranth and 0.2% bovine serum albumin (BSA), pH=7.4} containing 2 μM Fluo-4-AM and 0.04% Pluronic F127 was added at 100 μL per well, followed by incubation in a 5% CO2 incubator at 37° C. for 30 minutes. An assay buffer containing each concentration of MCH was added at 50 μL per well, and transient changes in the intracellular calcium concentration induced by MCH were monitored using FDSS6000™ at Ex. 488 nm and Em. 530 nm for 180 seconds. In testing the antagonistic activity of the analyte, MCH was added to a final concentration of 50 nM. An inhibition curve was prepared with various concentrations of the analyte, and the concentration of the analyte inhibiting 50% of the increase in intracellular calcium when 50 nM MCH was added (IC50 value) was calculated using data analysis software Origin Ver. 6.

SMILES	pIC50
O=C1CCc2ccc(CN3CCC(NC(=O)COc4ccc(F)c(Cl)c4)CC3)cc2N1 [Example 46, 2-(3-chloro-4-fluorophenoxy)-N-{1-[(2-oxo-1,2,3,4-tetrahydroquinolin-7-yl)methyl]piperidin-4-yl}acetamide]	8.36
O=C1CCc2ccc(CN3CCC(NC(=O)c4cccc(F)c4)CC3)cc2N1 [Example 3, 3-fluoro-N-{1-[(2-oxo-1,2,3,4-tetrahydroquinolin-7-yl)methyl]piperidin-4-yl}benzamide]	7.96
COc1cccc(C(=O)NC2CCN(Cc3ccc4c(c3)NC(=O)CC4)CC2)c1 [Example 2, 3-methoxy-N-{1-[(2-oxo-1,2,3,4-tetrahydroquinolin-7-yl)methyl]piperidin-4-yl}benzamide monohydrochloride, monohydrate]	8.21
COc1cccc(C(=O)NC2CCN(Cc3cc4c(cc3F)CCC(=O)N4)CC2)c1 [Example 53, N-{1-[(6-fluoro-2-oxo-1,2,3,4-tetrahydroquinolin-7-yl)methyl]piperidin-4-yl}-3-methoxybenzamide]	7.41
O=C1CCc2ccc(CN3CCC(NC(=O)C(c4ccccc4)c4ccccc4)CC3)cc2N1 [Example 27, N-{1-[(2-oxo-1,2,3,4-tetrahydroquinolin-7-yl)methyl]piperidin-4-yl}-2,2-diphenylacetamide]	7.71
O=C1CCc2ccc(CN3CCC(NC(=O)c4cncc(Cl)c4)CC3)cc2N1 [Example 38, 5-chloro-N-{1-[(2-oxo-1,2,3,4-tetrahydroquinolin-7-yl)methyl]piperidin-4-yl}pyridine-3-carboxamide]	7.73
CC(=O)c1cccc(C(=O)NC2CCN(Cc3ccc4c(c3)NC(=O)CC4)CC2)c1 [Example 32, 3-acetyl-N-{1-[(2-oxo-1,2,3,4-tetrahydroquinolin-7-yl)methyl]piperidin-4-yl}benzamide]	7.97
CC(c1ccc2c(c1)NC(=O)CC2)N1CCC(NC(=O)c2ccc(F)c(Cl)c2)CC1 (stereo not drawn) [Example 51, 3-chloro-4-fluoro-N-{1-[1-(2-oxo-1,2,3,4-tetrahydroquinolin-7-yl)ethyl]piperidin-4-yl}benzamide]	8.97
O=C1CCc2ccc(CN3CCC(NC(=O)c4ccc(F)c(F)c4)CC3)cc2N1 [Example 5, 3,4-difluoro-N-{1-[(2-oxo-1,2,3,4-tetrahydroquinolin-7-yl)methyl]piperidin-4-yl}benzamide]	8.82
Cc1cccc(C(=O)NC2CCN(Cc3ccc4c(c3)NC(=O)CC4)CC2)c1 [Example 8, 3-methyl-N-{1-[(2-oxo-1,2,3,4-tetrahydroquinolin-7-yl)methyl]piperidin-4-yl}benzamide]	7.72
O=C1CCc2ccc(CN3CCC(NC(=O)c4cccc(Cl)c4)CC3)cc2N1 [Example 7, 3-chloro-N-{1-[(2-oxo-1,2,3,4-tetrahydroquinolin-7-yl)methyl]piperidin-4-yl}benzamide]	8.04
COc1cc(OC)cc(C(=O)NC2CCN(Cc3ccc4c(c3)NC(=O)CC4)CC2)c1 [Example 19, 3,5-dimethoxy-N-{1-[(2-oxo-1,2,3,4-tetrahydroquinolin-7-yl)methyl]piperidin-4-yl}benzamide]	8.41
O=C1CCc2ccc(CN3CCC(NC(=O)c4cc(F)c(F)c(F)c4)CC3)cc2N1 [Example 33, 3,4,5-trifluoro-N-{1-[(2-oxo-1,2,3,4-tetrahydroquinolin-7-yl)methyl]piperidin-4-yl}benzamide]	8.71
N#Cc1cccc(C(=O)NC2CCN(Cc3ccc4c(c3)NC(=O)CC4)CC2)c1 [Example 37, 3-cyano-N-{1-[(2-oxo-1,2,3,4-tetrahydroquinolin-7-yl)methyl]piperidin-4-yl}benzamide]	7.74

test system: MCH1R; test: not given; details: NON-PATENT DOCUMENT 2; cited from earlier work

SMILES	effects in experimental animal models
CN(C)c1nc(N[C@H]2CC[C@@H](NC(=O)c3ccc(F)c(F)c3)CC2)nc2ccccc12 [ATC0175]	antidepressive-like and anxiolytic-like effects
